Assay results published in ChEMBL document CHEMBL4364276, “Discovery of 4-phenyl-2H-benzo[b][1,4]oxazin-3(4H)-one derivatives as potent and orally active PI3K/mTOR dual inhibitors” (Eur J Med Chem, 2019).

Legend:
[1] = biological target: Testis-specific serine/threonine-protein kinase 3 (Homo sapiens) (UniProt Q96PN8); experiment: Inhibition of human TSSK3 at 100 nM using KKKVSRSGLYRSPSMPENLNRPR as substrate by [gamma-33P]-ATP assay
[2] = biological target: Serine/threonine-protein kinase Nek8 (Homo sapiens) (UniProt Q86SG6); experiment: Inhibition of human NEK8 at 100 nM using casein as substrate by [gamma-33P]-ATP assay
[3] = biological target: Angiopoietin-1 receptor (Homo sapiens) (UniProt Q02763); experiment: Inhibition of human TIE2 at 100 nM using poly[Glu:Tyr] (4:1) as substrate by [gamma-33P]-ATP assay
[4] = biological target: Discoidin domain-containing receptor 2 (Homo sapiens) (UniProt Q16832); experiment: Inhibition of human DDR2 at 100 nM using KKSRGDYMTMQIG as substrate by [gamma-33P]-ATP assay
Discoidin domain-containing receptor 2 (Homo sapiens), sequence (Q16832 whole entry, the tested form may be a part): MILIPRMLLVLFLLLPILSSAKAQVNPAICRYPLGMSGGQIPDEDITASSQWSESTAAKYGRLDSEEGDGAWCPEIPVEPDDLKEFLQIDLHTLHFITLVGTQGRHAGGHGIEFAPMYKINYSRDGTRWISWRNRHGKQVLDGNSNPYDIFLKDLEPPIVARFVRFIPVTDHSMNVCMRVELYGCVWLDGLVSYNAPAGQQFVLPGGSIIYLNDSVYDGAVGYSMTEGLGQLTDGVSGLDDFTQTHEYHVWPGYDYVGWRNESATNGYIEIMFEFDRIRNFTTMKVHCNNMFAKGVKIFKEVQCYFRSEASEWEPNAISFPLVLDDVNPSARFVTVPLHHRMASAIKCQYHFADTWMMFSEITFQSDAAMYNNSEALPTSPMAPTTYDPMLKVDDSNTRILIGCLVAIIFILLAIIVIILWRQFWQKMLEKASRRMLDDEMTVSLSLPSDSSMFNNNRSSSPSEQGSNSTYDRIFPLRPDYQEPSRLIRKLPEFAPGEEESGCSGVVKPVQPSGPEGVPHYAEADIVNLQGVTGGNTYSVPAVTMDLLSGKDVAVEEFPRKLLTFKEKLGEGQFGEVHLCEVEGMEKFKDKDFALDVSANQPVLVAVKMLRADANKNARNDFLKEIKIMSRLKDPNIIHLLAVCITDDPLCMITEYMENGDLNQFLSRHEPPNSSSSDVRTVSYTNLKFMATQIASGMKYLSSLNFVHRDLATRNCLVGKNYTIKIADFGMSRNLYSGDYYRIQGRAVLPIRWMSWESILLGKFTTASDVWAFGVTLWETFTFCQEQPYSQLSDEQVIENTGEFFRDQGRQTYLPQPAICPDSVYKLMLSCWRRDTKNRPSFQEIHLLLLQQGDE

[5] = biological target: Cyclin-dependent kinase 5/CDK5 activator 1 (Homo sapiens) (UniProt Q00535+Q15078); experiment: Inhibition of human CDK5/p25 at 100 nM using histone H1 as substrate by [gamma-33P]-ATP assay; type: protein-complex assay
[6] = biological target: Dual specificity protein kinase CLK4 (Homo sapiens) (UniProt Q9HAZ1); experiment: Inhibition of human CLK4 at 100 nM using MBP as substrate by [gamma-33P]-ATP assay
[7] = biological target: Serine/threonine-protein kinase TAO2 (Homo sapiens) (UniProt Q9UL54); experiment: Inhibition of human TAOK2 at 100 nM using MBP as substrate by [gamma-33P]-ATP assay
[8] = biological target: MAP/microtubule affinity-regulating kinase 3 (Homo sapiens) (UniProt P27448); experiment: Inhibition of human MARK3 at 100 nM using KKKVSRSGLYRSPSMPENLNRPR as substrate by [gamma-33P]-ATP assay
[9] = biological target: Mitogen-activated protein kinase kinase kinase kinase 2 (Homo sapiens) (UniProt Q12851); experiment: Inhibition of human GCK at 100 nM using MBP as substrate by [gamma-33P]-ATP assay
Mitogen-activated protein kinase kinase kinase kinase 2 (Homo sapiens), sequence (Q12851 whole entry): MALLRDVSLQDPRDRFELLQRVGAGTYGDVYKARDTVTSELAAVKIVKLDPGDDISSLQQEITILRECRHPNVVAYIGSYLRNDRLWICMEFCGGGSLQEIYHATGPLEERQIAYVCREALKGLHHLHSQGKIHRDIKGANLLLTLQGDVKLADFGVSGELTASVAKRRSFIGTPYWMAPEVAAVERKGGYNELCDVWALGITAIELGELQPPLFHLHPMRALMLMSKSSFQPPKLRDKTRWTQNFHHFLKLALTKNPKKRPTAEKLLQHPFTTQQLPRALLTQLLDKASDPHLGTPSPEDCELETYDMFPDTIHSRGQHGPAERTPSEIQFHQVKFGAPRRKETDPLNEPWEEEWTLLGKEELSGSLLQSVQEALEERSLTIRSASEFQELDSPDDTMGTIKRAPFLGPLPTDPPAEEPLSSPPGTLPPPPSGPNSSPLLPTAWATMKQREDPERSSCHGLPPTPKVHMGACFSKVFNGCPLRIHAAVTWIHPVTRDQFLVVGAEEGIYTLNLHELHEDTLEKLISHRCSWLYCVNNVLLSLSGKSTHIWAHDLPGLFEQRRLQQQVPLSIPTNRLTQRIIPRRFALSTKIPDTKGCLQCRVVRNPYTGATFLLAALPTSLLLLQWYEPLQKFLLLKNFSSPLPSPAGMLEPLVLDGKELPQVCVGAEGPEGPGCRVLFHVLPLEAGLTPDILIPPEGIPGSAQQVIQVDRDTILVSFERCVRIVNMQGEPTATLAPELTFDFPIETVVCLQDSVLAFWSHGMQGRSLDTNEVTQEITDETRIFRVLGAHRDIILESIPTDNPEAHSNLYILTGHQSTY

[10] = biological target: Casein kinase II subunit alpha (Homo sapiens) (UniProt P68400); experiment: Inhibition of human CK2A at 100 nM using RRRDDDSDDD as substrate by [gamma-33P]-ATP assay
[11] = biological target: NT-3 growth factor receptor (Homo sapiens) (UniProt Q16288); experiment: Inhibition of human TRKC at 100 nM using poly[Glu:Tyr] (4:1) as substrate by [gamma-33P]-ATP assay
[12] = biological target: Aurora kinase B (Homo sapiens) (UniProt Q96GD4); experiment: Inhibition of human Aurora B at 100 nM using [H-LRRASLG] as substrate by [gamma-33P]-ATP assay
[13] = biological target: Serine/threonine-protein kinase 24 (Homo sapiens) (UniProt Q9Y6E0); experiment: Inhibition of human MST3 at 100 nM using MBP as substrate by [gamma-33P]-ATP assay
[14] = biological target: Cyclin-dependent kinase 1/cyclin B1 (Homo sapiens) (UniProt P06493+P14635); experiment: Inhibition of human CDK1/cyclinB at 100 nM using Histone H1 as substrate by [gamma-33P]-ATP assay; type: protein-complex assay
[15] = biological target: Myosin-IIIb (Homo sapiens) (UniProt Q8WXR4); experiment: Inhibition of human MYO3B at 100 nM using MBP as substrate by [gamma-33P]-ATP assay
[16] = biological target: Platelet-derived growth factor receptor beta (Homo sapiens) (UniProt P09619); experiment: Inhibition of human PDGFRbeta at 100 nM using poly[Glu:Tyr] (4:1) as substrate by [gamma-33P]-ATP assay
[17] = biological target: Tyrosine-protein kinase BTK (Homo sapiens) (UniProt Q06187); experiment: Inhibition of human BTK at 100 nM using KVEKIGEGTYGVVYK as substrate by [gamma-33P]-ATP assay
[18] = biological target: [Pyruvate dehydrogenase (acetyl-transferring)] kinase isozyme 3, mitochondrial (Homo sapiens) (UniProt Q15120); experiment: Inhibition of human PDK3 at 100 nM using MBP as substrate by [gamma-33P]-ATP assay
[Pyruvate dehydrogenase (acetyl-transferring)] kinase isozyme 3, mitochondrial (Homo sapiens), sequence (Q15120 whole entry, looked up): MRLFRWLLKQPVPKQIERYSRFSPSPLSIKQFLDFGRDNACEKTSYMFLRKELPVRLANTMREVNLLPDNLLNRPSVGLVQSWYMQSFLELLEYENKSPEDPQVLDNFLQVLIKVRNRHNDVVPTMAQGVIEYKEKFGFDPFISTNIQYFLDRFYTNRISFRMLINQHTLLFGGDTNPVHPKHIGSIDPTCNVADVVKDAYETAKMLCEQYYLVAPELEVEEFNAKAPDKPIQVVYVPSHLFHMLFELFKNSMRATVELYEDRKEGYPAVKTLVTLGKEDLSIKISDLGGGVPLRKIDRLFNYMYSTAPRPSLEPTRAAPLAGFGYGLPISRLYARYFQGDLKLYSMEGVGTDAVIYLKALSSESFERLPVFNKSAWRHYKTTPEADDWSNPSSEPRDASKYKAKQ

[19] = biological target: Tyrosine-protein kinase ABL2 (Homo sapiens) (UniProt P42684); experiment: Inhibition of human ABL2 at 100 nM using EAIYAAPFAKKK as substrate by [gamma-33P]-ATP assay
[20] = biological target: cGMP-dependent protein kinase 1 (Homo sapiens) (UniProt Q13976); experiment: Inhibition of human PKG1alpha at 100 nM using LRRASLG as substrate by [gamma-33P]-ATP assay
[21] = biological target: NUAK family SNF1-like kinase 2 (Homo sapiens) (UniProt Q9H093); experiment: Inhibition of human SNARK at 100 nM using KKKVSRSGLYRSPSMPENLNRPR as substrate by [gamma-33P]-ATP assay
NUAK family SNF1-like kinase 2 (Homo sapiens), sequence (Q9H093 whole entry): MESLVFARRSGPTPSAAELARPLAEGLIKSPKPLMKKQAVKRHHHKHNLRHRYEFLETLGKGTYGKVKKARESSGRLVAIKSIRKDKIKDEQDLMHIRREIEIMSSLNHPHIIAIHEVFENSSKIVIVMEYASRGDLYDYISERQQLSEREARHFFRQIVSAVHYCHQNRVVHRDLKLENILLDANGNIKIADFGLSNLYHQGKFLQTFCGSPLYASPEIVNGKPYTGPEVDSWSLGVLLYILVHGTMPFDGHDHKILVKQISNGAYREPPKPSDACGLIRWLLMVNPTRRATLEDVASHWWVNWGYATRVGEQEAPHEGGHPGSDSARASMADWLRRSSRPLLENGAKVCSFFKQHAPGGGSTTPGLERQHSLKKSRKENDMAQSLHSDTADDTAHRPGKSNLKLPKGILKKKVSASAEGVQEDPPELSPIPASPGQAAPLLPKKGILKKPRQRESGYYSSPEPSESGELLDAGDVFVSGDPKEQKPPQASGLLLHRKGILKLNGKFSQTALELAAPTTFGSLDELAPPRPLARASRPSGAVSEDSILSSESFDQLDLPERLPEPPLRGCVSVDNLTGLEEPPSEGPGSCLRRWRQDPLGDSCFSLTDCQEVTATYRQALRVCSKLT

[22] = biological target: Serine/threonine-protein kinase D1 (Homo sapiens) (UniProt Q15139); experiment: Inhibition of human PKCmu at 100 nM using KKLNRTLSVA as substrate by [gamma-33P]-ATP assay
Serine/threonine-protein kinase D1 (Homo sapiens), sequence (Q15139 whole entry): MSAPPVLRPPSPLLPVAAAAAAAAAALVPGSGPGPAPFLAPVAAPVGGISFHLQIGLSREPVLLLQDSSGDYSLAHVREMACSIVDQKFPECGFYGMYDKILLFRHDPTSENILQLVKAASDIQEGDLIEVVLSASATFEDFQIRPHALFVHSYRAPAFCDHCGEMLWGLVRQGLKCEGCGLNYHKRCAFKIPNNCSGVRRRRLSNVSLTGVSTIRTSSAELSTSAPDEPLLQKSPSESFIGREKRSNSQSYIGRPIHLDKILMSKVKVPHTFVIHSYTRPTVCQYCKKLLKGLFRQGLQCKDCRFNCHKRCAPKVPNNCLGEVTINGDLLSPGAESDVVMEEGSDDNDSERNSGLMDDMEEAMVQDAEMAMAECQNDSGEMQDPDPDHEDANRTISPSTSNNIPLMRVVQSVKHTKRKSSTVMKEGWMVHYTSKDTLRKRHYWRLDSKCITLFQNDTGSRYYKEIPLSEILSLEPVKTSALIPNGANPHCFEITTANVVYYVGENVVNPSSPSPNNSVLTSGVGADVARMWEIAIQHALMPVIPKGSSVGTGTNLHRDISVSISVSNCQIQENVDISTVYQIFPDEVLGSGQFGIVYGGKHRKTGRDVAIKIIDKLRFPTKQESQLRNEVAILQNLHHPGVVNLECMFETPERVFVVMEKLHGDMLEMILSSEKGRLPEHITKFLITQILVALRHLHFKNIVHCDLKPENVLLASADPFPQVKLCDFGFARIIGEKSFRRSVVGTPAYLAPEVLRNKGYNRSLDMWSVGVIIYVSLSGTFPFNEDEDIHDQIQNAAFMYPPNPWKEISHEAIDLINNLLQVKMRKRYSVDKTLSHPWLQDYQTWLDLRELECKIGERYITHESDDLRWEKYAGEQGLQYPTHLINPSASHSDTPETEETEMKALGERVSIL

[23] = biological target: Serine/threonine-protein kinase SBK1 (Homo sapiens) (UniProt Q52WX2); experiment: Inhibition of human SBK1 at 100 nM using LCGRTGRRNSI as substrate by [gamma-33P]-ATP assay
Serine/threonine-protein kinase SBK1 (Homo sapiens), sequence (Q52WX2 whole entry): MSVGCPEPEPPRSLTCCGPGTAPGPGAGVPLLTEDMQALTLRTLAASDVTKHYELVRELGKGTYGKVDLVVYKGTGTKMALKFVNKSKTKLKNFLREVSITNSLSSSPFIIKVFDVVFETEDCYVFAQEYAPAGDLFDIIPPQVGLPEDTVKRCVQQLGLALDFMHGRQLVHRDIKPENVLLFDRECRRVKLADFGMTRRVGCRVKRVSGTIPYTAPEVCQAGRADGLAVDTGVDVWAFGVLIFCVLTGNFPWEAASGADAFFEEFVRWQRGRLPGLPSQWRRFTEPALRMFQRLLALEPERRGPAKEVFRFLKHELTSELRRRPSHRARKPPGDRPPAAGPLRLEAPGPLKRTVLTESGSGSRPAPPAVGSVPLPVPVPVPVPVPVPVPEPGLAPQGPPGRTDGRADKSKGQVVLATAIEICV

[24] = biological target: SRSF protein kinase 1 (Homo sapiens) (UniProt Q96SB4); experiment: Inhibition of human SRPK1 at 100 nM using GRSRSRSRSR as substrate by [gamma-33P]-ATP assay
[25] = biological target: Dual specificity protein kinase CLK1 (Homo sapiens) (UniProt P49759); experiment: Inhibition of human CLK1 at 100 nM using MBP as substrate by [gamma-33P]-ATP assay
Dual specificity protein kinase CLK1 (Homo sapiens), sequence (P49759 whole entry, looked up): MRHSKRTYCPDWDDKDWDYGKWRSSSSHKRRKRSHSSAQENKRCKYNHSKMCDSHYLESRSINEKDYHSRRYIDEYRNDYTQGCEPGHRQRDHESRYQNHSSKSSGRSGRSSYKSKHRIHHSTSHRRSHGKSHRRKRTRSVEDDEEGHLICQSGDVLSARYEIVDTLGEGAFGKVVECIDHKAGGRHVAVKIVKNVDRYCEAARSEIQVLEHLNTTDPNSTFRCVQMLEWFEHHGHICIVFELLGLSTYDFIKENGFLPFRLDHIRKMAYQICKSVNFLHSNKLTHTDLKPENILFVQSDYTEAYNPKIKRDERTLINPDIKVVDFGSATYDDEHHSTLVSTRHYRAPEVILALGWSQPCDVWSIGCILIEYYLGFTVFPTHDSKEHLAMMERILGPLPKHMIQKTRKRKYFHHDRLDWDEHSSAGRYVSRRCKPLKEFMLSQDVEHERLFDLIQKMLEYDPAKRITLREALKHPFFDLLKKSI

[26] = biological target: Dual specificity mitogen-activated protein kinase kinase 4 (Homo sapiens) (UniProt P45985); experiment: Inhibition of human MKK4 at 100 nM using JNK1 as substrate by [gamma-33P]-ATP assay
[27] = biological target: Bone morphogenetic protein receptor type-1B (Homo sapiens) (UniProt O00238); experiment: Inhibition of human ALK6 at 100 nM using casein as substrate by [gamma-33P]-ATP assay
Bone morphogenetic protein receptor type-1B (Homo sapiens), sequence (O00238 whole entry): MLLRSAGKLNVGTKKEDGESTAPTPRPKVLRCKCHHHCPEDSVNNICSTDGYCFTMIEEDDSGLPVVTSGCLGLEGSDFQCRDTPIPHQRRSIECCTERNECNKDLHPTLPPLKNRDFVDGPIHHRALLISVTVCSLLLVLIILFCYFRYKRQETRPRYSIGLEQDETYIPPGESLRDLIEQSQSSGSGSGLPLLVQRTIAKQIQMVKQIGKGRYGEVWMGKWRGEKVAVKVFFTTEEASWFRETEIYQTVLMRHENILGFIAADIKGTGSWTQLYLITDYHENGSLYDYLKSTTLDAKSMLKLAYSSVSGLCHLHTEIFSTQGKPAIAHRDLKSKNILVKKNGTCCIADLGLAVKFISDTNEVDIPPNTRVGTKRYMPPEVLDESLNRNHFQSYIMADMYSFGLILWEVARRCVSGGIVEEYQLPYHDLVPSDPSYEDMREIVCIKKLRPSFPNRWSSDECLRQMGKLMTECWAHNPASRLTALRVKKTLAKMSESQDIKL

[28] = biological target: Mitogen-activated protein kinase 1 (Homo sapiens) (UniProt P28482); experiment: Inhibition of human ERK2 at 100 nM using MBP as substrate by [gamma-33P]-ATP assay
[29] = biological target: Serine/threonine-protein kinase Chk1 (Homo sapiens) (UniProt O14757); experiment: Inhibition of human CHK1 at 100 nM using KKKVSRSGLYRSPSMPENLNRPR as substrate by [gamma-33P]-ATP assay
[30] = biological target: Calcium/calmodulin-dependent protein kinase type II subunit delta (Homo sapiens) (UniProt Q13557); experiment: Inhibition of human CAMK2D at 100 nM using KKLNRTLSFAEPG as substrate by [gamma-33P]-ATP assay
[31] = biological target: Dual specificity mitogen-activated protein kinase kinase 5 (Homo sapiens) (UniProt Q13163); experiment: Inhibition of human MEK5 at 100 nM using ERK5 as substrate by [gamma-33P]-ATP assay

COc1ccc(N2C(=O)COc3ccc(-c4cnc(OC)c(NS(=O)(=O)c5ccc(F)cc5)c4)cc32)cc1
inhibition [1]: -8.01% | inhibition [2]: 14.4% | inhibition [3]: 8.06% | inhibition [4]: -1.84% | inhibition [5]: 9.26% | inhibition [6]: 6.64% | inhibition [7]: -3.9% | inhibition [8]: -2.27% | inhibition [9]: 1.33% | inhibition [10]: 12.7% | inhibition [11]: 2.63% | inhibition [12]: -2.21% | inhibition [13]: 10.6% | inhibition [14]: -2.84% | inhibition [15]: 8.36% | inhibition [16]: 0.28% | inhibition [17]: 14.8% | inhibition [18]: 8.78% | inhibition [19]: -2.65% | inhibition [20]: 4.25% | inhibition [21]: 4.8% | inhibition [22]: 25.9% | inhibition [23]: 7.68% | inhibition [24]: 1.44% | inhibition [25]: 7.77% | inhibition [26]: -4.2% | inhibition [27]: 2.39% | inhibition [28]: 17.4% | inhibition [29]: 5.54% | inhibition [30]: 22.6% | inhibition [31]: -3.16%
